Earlier results on two molecules are cited in patent publication EP2965746B1 (Santa Farma Ilaç Sanayi A.S., priority 2014, dated 2016).

As a reminder, the solubility is how much of the substance goes into solution per volume.

For data set [1] the following is noted: in water.
For data set [2] the following is noted: in vivo.
For data set [3] the following is noted: in vivo. The source holds these as a separate data set.

In brackets after ≈: the same amount, converted by molar mass.

As for `CC(C)Cc1ccc(C(C)C(=O)O)cc1` (racemic) [Ibuprofen, (±)-(R,S)-2-(4-isobutylphenyl)-propionic acid], in data set [1], the solubility was 0.078 µg/mL (≈ 0.378 µM). The “time to reach maximum plasma concentration (Tmax)” value in data set [2] was 1.4 ± 1.1 h. Moreover, the absolute bioavailability result in data set [3] is “about 100%”.

`CC(C)Cc1ccc(C(C)C(=O)O)cc1.O.O.[Na]` (stereo not shown) [Ibuprofen sodium dihydrate, ibuprofen sodium dihydrate]: the “time to reach maximum plasma concentration (Tmax)” value in data set [2] is 0.6 ± 0.3 h.
